assay: gradient 5% acetonitrile 3 min, to 50% in 2 min, to 85% in 15 min, held 3 min, 100 µL/min; conditions: column: Zorbax Extend-C18 2.1 x 50 mm; eluents: water / acetonitrile, 0.1% formic acid
Outline: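 Over 3 months, pure standards in mixtures of ~100 molecules were run by HPLC coupled to a quadrupole time-of-flight mass spectrometer in positive and negative ionization mode. The column was a Zorbax Extend-C18 (2.1 × 50 mm, 1.8 μm) at 100 μL/min, eluted with water and acetonitrile each holding 0.1% formic acid, with 40 μL dead and 900 μL dwell volumes. Retention time was determined from adduct peaks chosen by software and checked manually.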

| RP-LC retention time | SMILES |
| --- | --- |
| 968 s | Cc1sc(NC(=O)c2ccccc2Cl)nc1-c1ccc2c(c1)N(C)C(=O)CO2 |
| 888 s | Cc1ccc(C)c(CNC(=O)C2CCc3nc(N4CCOCC4)ncc3C2)c1 (stereo not given) |
| 782 s | Cc1ccc(-c2nc3nc(C)cc(NC(C)C)n3n2)cc1 |
| 686 s | CCOC(=O)c1ccc(NC(=O)Cn2cnc3nc(-c4cccnc4)ncc3c2=O)cc1 |
| 1110 s | Cc1ccc(NC(=O)c2cc(C3CC3)n3nccc3n2)c(C)c1 |
| 1260 s | CCc1ccc(CNC(=O)C2CCCN(c3nc4c(s3)c(C)nn4-c3ccc(C)cc3)C2)cc1 (stereo not given) |
| 1120 s | Cn1nnc2ccc(-c3noc(-c4cccc(Cl)c4)n3)cc21 |
| 1060 s | Cc1cc2nn(CC(=O)Nc3ccc(F)cc3F)c(=O)n2c(Nc2ccc(F)c(C)c2)n1 |
| 717 s | Cc1c(CC(=O)NCC(C)C)c(=O)n2nc(-c3ccccc3)nc2n1C |
| 642 s | c1ccc(-c2nc(-c3ccncc3)no2)c(OC2CCN(CC3CC3)C2)c1 (stereo not given) |
| 807 s | Cc1cc(N2C=NS(=O)(=O)c3cccnc32)ccc1F |
| 1040 s | Cc1nc(-c2csc(S(=O)(=O)N3CCCC(C(=O)Nc4ccc(Cl)cc4)C3)c2)no1 (stereo not given) |
| 966 s | COc1ccc(N2CC(c3nc(-c4ccc5c(c4)OCO5)no3)CC2=O)cc1Cl (stereo not given) |
| 780 s | Fc1cc(F)cc(-c2nnc(Cc3nc(-c4ccncc4)no3)o2)c1 |
| 845 s | CCc1ccc(NC(=O)N2CCCC2c2cc(C)on2)cc1 (stereo not given) |
| 1210 s | Cc1ccc(CNC(=O)C2CCCN(c3nc4c(s3)c(C)nn4-c3ccc(C)cc3)C2)cc1 (stereo not given) |

| RP-LC retention time | SMILES |
| --- | --- |
| 1050 s | COC(=O)c1[nH]c(C)c(C(=O)C(C)N(C(=O)c2ccc(C)cc2)C2CCCCC2)c1C (stereo not given) |
| 668 s | Cc1nc(-c2ccc(C(=O)NC3CC3)cc2)no1 |
| 795 s | Cc1ccc2c(c1)C(=O)NC1(CCN(C(=O)c3ccc(F)c(F)c3)CC1)N2C |
| 663 s | COc1ccc(C[C@H](C)NC[C@@H](O)c2ccc(O)c(NC=O)c2)cc1 |
| 586 s | Cc1ccc2[nH]c(=O)c(CCC(=O)NCc3ccncc3)cc2c1 |
| 909 s | COc1ccc(CC(=O)N2CCc3cc(-c4ccno4)ccc32)cc1 |
| 849 s | COC(=O)c1ccc(NC(=O)Cc2csc3nc(-c4ccc(C)c(C)c4)cn23)cc1 |
| 627 s | Cc1ccc(NC(=O)N2CCN(C3=CC4=NC(C)CN4C=N3)CC2)c(C)c1 (stereo not given) |
| 782 s | CN(C)CC(O)Cn1c2ccc(Br)cc2c2cc(Br)ccc21 (stereo not given) |
| 933 s | N#Cc1cccc(C(=O)N2CCCn3nc(-c4ccc(Cl)cc4)cc3C2)c1 |
| 1050 s | COCCn1c(C)cc(O)c(C(c2ccc(SC)cc2)N2CCC(C)CC2)c1=O (stereo not given) |
| 880 s | Cc1nn(Cc2ccc(C(=O)NC(C)C)cc2)c(C)c1S(=O)(=O)N1CCC(C)CC1 |
| 1150 s | Cc1cccc(-c2noc(Cc3nnc(-c4cccc(Br)c4)o3)n2)c1 |
| 1280 s | CCCCC(=O)Nc1ccc(-c2nc(-c3cc(C)ccc3C)co2)cc1 |
| 1100 s | CCc1cccc(NC(=O)Cn2cnc3c(sc4nc(-c5ccccc5)ccc43)c2=O)c1 |
| 1110 s | CCOC(=O)c1[nH]c(C)c(C(=O)C(C)N(CCC(C)C)C(=O)c2ccc(C)cc2)c1C (stereo not given) |

Continued, compound first:

| SMILES | RP-LC retention time |
| --- | --- |
| COc1ccccc1NS(=O)(=O)c1c[nH]c2ncccc12 | 706 s |
| CN1C(=O)Cc2ccccc2C1C(=O)NCc1ccc(F)cc1 (stereo not given) | 706 s |
| Cn1c(=O)c2nc(SCCC(=O)Nc3ccc(Br)cc3)n(C)c2n(C)c1=O | 757 s |
| CC(NC(=O)Cn1ncc2c(N3CCN(c4ccccn4)CC3)ncnc21)c1ccccc1 (stereo not given) | 616 s |
| O=C(Cn1cccc1-c1nnc(C2CC2)o1)NCc1ccccc1Cl | 815 s |
| C=CCn1c(=O)c2ccccc2n(Cc2nc(-c3ccccc3Cl)no2)c1=O | 1020 s |
| O=C(Nc1ccc(N2CCOCC2)cc1)C1CCCN(c2nnc3ccccn23)C1 (stereo not given) | 600 s |
| O=C(NCc1ccccc1Cl)C1CCN(C(=O)c2ncn3c2COC(c2ccccc2)C3)CC1 (stereo not given) | 786 s |
| CCOc1ccc(/C=C/C(=O)Nc2nc(-c3ccc4c(c3)NC(=O)C(C)O4)c(C)s2)cc1OC (stereo not given) | 980 s |
| O=C(CC1CCCC1)N1CCCC(c2nn[nH]n2)C1 (stereo not given) | 660 s |
| O=C(O)C1CCN(S(=O)(=O)c2ccccc2[N+](=O)[O-])CC1 | 701 s |
| Cn1c(C(=O)N2CCN(c3ccccn3)CC2)cc2cc(S(=O)(=O)N3CCCCC3)ccc21 | 699 s |
| CCCn1c(C)cnc1C1CN(S(=O)(=O)c2cccc3cccnc23)C1 | 624 s |
| Cc1cccc(NC(=O)Nc2nccn(-c3ccc4c(c3)CCC4)c2=O)c1 | 1140 s |
| O=C(CSc1nc(-c2ccccc2Cl)ns1)Nc1nccs1 | 818 s |
| Cc1nnc(C2CCCCCN2C(=O)c2ocnc2C)o1 (stereo not given) | 628 s |
| CC(=O)N(Cc1nn(C)c2c1CN(S(=O)(=O)c1ccc(F)cc1F)CC2)c1ccccc1 | 808 s |
| Cc1cc(C)cc(NC(=O)N2CCCC(C)(C(=O)NCc3ccccc3)C2)c1 (stereo not given) | 959 s |
| O=C(Nc1cccn2nc(C3CCC3)nc12)c1ccccn1 | 961 s |
| Cn1c(=O)n(C)c2cc(CNc3ccc(N4CCOCC4)c(Cl)c3)ccc21 | 811 s |

| SMILES | RP-LC retention time |
| --- | --- |
| O=C(NC1CCCC1)c1ccc(Cn2nc(N3CCN(c4ccc(F)cc4)CC3)ccc2=O)o1 | 853 s |
| COc1ccc(CNC(=O)CSc2ccc(N3CCCC(C(=O)NC4CC4)C3)nn2)cc1 (stereo not given) | 631 s |
| COc1ccc(C2(C(=O)N[C@@H]3CN(S(C)(=O)=O)C[C@H]3CN(C)C)CC2)cc1 | 635 s |
| Cc1noc(C2CN(C(=O)Nc3cccc(Cl)c3C)CC23CCOCC3)n1 (stereo not given) | 792 s |
| NC(=O)Nc1ccc(Nc2ccccc2)cc1 | 752 s |
| Cc1noc(C2CN(C(=O)NCc3cccc(F)c3)CC23CCOCC3)n1 (stereo not given) | 706 s |
| Cc1noc(/C=C\c2ccc(S(=O)(=O)N3CCOCC3)cc2)c1NC(=O)C1CC1 | 777 s |
| CCc1ccc(C(=O)NC2CCN(c3cc(-c4cccs4)[nH]n3)C2)cc1 (stereo not given) | 730 s |
| COc1ccc(CC2c3cc(OC)c(OC)cc3CC[N+]2(C)C)cc1OC (stereo not given) | 693 s |
| CC(=O)c1ccc(Oc2ccccc2)cc1 | 920 s |
| Cc1cccc(Nc2nc(C(=O)N3CCC(C(N)=O)CC3)cs2)n1 | 572 s |
| Cn1cc(C(=O)C(=O)NC2CCCCC2)c2ccccc21 | 1070 s |
| O=C(Cc1csc2nc(-c3cccc(Br)c3)cn12)NC1CCCC1 | 888 s |
| Cc1sc(-c2nnc(C3CC3)o2)cc1NC(=O)c1n[nH]c2c1CCCC2 | 916 s |
| CCC(=O)N1CCc2cc(N3CC(C(=O)Nc4ccc(C)cc4F)CC3=O)ccc21 (stereo not given) | 778 s |
| CN(C)CCCn1cc2c(c1-c1cccc(Br)c1)c(=O)n(C)c(=O)n2C | 617 s |
| CCN(CC)S(=O)(=O)c1ccc2nc(N3CCN(c4ccccn4)CC3)cnc2c1 | 675 s |
| O=C(C1COc2ccccc2O1)N1CCCN(C2CCN(CC3CC3)C2=O)CC1 (stereo not given) | 560 s |
| O=C(NCCc1c[nH]c2ccccc12)c1cc(S(=O)(=O)N2CCSCC2)ccc1Cl | 925 s |
| O=C(Nc1ccc(F)cc1)Nc1ccc2nncn2c1 | 659 s |

| SMILES | RP-LC retention time |
| --- | --- |
| CCC(=O)N1CCc2cc(N3CC(C(=O)Nc4ccc(OC)c(F)c4)CC3=O)ccc21 (stereo not given) | 738 s |
| CN(C)C(=O)[C@@]12CCCC[C@H]1N(CCc1ccccc1)C(=O)CC2 | 725 s |
| COc1cccc(N2CCN(S(=O)(=O)c3nn(C)cc3C(=O)NC3CC3)CC2)c1 | 818 s |
| COc1ccccc1N1CCN(CCNC(=O)Cc2ccc(Cl)cc2)CC1 | 572 s |
| Cn1cnc2c(C(=O)NCc3ccco3)nn(-c3ccc(Cl)cc3)c2c1=O | 834 s |
| CCC(=O)N1CCc2cc(N3CC(C(=O)NC(C)C)CC3=O)ccc21 (stereo not given) | 647 s |
| CCN(CC)C(=O)CSc1nnc(-c2ccc3c(c2)OCCCO3)n1C | 691 s |
| CC(C)c1ccc(NC(=O)CN2C(=O)C(C(=O)N3CCCC3)Sc3ccccc32)cc1 (stereo not given) | 1140 s |
| O=C(NCC1CCCO1)c1ccc2nc(CCc3ccccc3)oc2c1 (stereo not given) | 840 s |
| O=C(NCc1ccccn1)C1c2ccccc2C(=O)N(C2CCCC2)C1c1cccs1 (stereo not given) | 709 s |
| CCn1ncc(N2CCCC(CC(=O)O)C2)cc1=O (stereo not given) | 632 s |
| COc1ccc(Nc2nccc(NCCO)n2)cc1 | 610 s |
| CCN(CC)Cc1cc2[nH]c3c4ccc(Cl)cc4ncc3c2cc1OC | 747 s |
| CCN(CC)CCNC(=O)C1CCN(c2nccnc2Sc2ccccc2)CC1 | 657 s |
| Cc1ccc(CNC(=O)C2CCN(S(=O)(=O)c3cc(C(=O)N4CCCCCC4)cs3)CC2)o1 | 862 s |
| Cc1ccc(CNC(=O)C2=CCN(Cc3cccc(F)c3)CC2)o1 | 626 s |
| O=C(NCC1CCCO1)c1nc(-c2ccnc(N3CCCCC3)c2)no1 (stereo not given) | 654 s |
| COc1ccc(-c2[nH]ncc2CN2CCC3(CCC3O)CC2)cc1 (stereo not given) | 584 s |
